Experimental data: PubChem BioAssay (NCI)
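A five-concentration, 48-hour dose response in 96-well plates underlies each endpoint, interpolated linearly between surrounding concentrations. The concentration for full growth arrest is given as TGI.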

Tests used:
Test in all cases: growth of human tumour cells (NCI), 48 h
ACHN renal = tested on: ACHN renal
DMS 273 small cell lung = tested on: DMS 273 small cell lung
EKVX NSCLC = tested on: EKVX NSCLC
M14 melanoma = tested on: M14 melanoma
MALME-3M melanoma = tested on: MALME-3M melanoma
OVCAR-4 ovarian = tested on: OVCAR-4 ovarian
SF-539 CNS = tested on: SF-539 CNS
SK-MEL-5 melanoma = tested on: SK-MEL-5 melanoma
SNB-78 CNS = tested on: SNB-78 CNS
DU-145 prostate = tested on: DU-145 prostate
NCI/ADR-RES ovarian = tested on: NCI/ADR-RES ovarian

Structure (SMILES) | TGI (ACHN renal) | TGI (DMS 273 small cell lung) | TGI (EKVX NSCLC) | TGI (M14 melanoma) | TGI (MALME-3M melanoma) | TGI (OVCAR-4 ovarian) | TGI (SF-539 CNS) | TGI (SK-MEL-5 melanoma) | TGI (SNB-78 CNS) | TGI (DU-145 prostate) | TGI (NCI/ADR-RES ovarian)
CC1(C)COC(c2c(-c3ccccc3)noc2CS(=O)c2ccccc2)=N1 (stereo not drawn) | > 100 µM | > 100 µM | > 100 µM | > 100 µM | > 100 µM | > 100 µM | > 100 µM | > 100 µM | > 100 µM |  | 
CCN(CC)CCCCC1CCN(CC(=O)N2c3ccccc3NC(=O)CC2C)CC1 (stereo not drawn) | > 100 µM | > 100 µM | > 100 µM | > 100 µM | > 100 µM | > 100 µM | > 100 µM | > 100 µM | > 100 µM |  | 
O=C(OCc1ccccc1C1CSCSC1)c1cc(C(=O)OCc2ccccc2C2CSCSC2)c(C(=O)OCc2ccccc2C2CSCSC2)cc1C(=O)OCc1ccccc1C1CSCSC1 | > 100 µM | > 100 µM |  | > 100 µM | > 100 µM | > 100 µM | > 100 µM | > 100 µM | > 100 µM |  | 
OC12CCCCCC1(N1CCOCC1)c1ccccc12 (stereo not drawn) | > 100 µM | > 100 µM |  | > 100 µM | > 100 µM | > 100 µM | > 100 µM | > 100 µM | > 100 µM |  | 
Cc1cc(=O)[nH]c(NNC(C#N)c2ccc([N+](=O)[O-])cc2)n1 (stereo not drawn) | > 100 µM | > 100 µM |  | > 100 µM | > 100 µM | > 100 µM | > 100 µM | > 100 µM | > 100 µM |  | 
O=c1c2c(nc3n1CCC3)sc1c(O)c(Br)ccc12 | 35.8 µM | 31 µM | 68.6 µM | > 100 µM | 34.4 µM | 54.9 µM | 33 µM | 30.4 µM | > 100 µM |  | 
Cc1cc2occ(-c3ccc(Cl)cc3)c2c(=O)o1 | > 100 µM | > 100 µM | > 100 µM | > 100 µM | > 100 µM | > 100 µM | > 100 µM | > 100 µM | > 100 µM |  | 
CC(=O)NC1=C(NCC(C)C)C(=O)c2ccccc2C1=O | > 100 µM | 30.7 µM | 59.9 µM | 33.2 µM | 34.2 µM | > 100 µM | 32.2 µM | 43.6 µM | 89.1 µM |  | 
CC(=O)Nc1ccc(C(=O)N2N=C(C)/C(=C/c3ccc(O)cc3)C2=O)cc1 | > 100 µM | > 100 µM | > 100 µM |  | > 100 µM | > 100 µM | > 100 µM | > 100 µM | > 100 µM |  | 
CC(c1ccccc1)N1CC(C)(c2ccccc2)N(O)C(c2ccccc2)C1C (stereo not drawn) | 45.4 µM | > 100 µM | 62.1 µM |  | 66.2 µM |  | 26.5 µM |  | 89.9 µM |  | 
C/C(=C\Cc1cc(O)ccc1O)CCc1c(C)cc(O)c(C=O)c1C | 44.3 µM | 55.4 µM | > 100 µM | 63.1 µM | 53.8 µM | > 100 µM | 38.3 µM | 31.7 µM |  |  | 
O=c1oc2ccc(Cl)cc2cc1-c1cn2ccsc2n1 | > 100 µM |  | > 100 µM | > 100 µM | > 100 µM | > 100 µM | > 100 µM | > 100 µM |  | > 100 µM | > 100 µM
Cc1c2cccc-2ccc2c1[nH]c1ccccc12 | 3.2 µM |  | 3.68 µM | 3.7 µM | 4.03 µM | 5.09 µM | 3.42 µM | 3.34 µM |  | 15.7 µM | > 27.3 µM
CCOC1=C2NC(Cc3ccc(F)cc3)=NC2C(=O)c2ccccc21 (stereo not drawn) | > 100 µM | 81.3 µM | 85.7 µM | 73.4 µM | 55.8 µM |  | 36 µM |  | > 100 µM |  | 
Cn1c(=O)sc2cc(C(=S)N3CCOCC3)ccc21 | > 100 µM |  | > 100 µM | > 100 µM | > 100 µM | > 100 µM | > 100 µM | > 100 µM |  | > 100 µM | > 100 µM
O=C(/C=C/c1ccco1)c1cccc(C(=O)/C=C/c2ccco2)n1 | 72.7 µM |  | > 100 µM | > 96.3 µM | > 100 µM | > 100 µM | 17.5 µM | > 100 µM |  | > 100 µM | > 73.3 µM
COc1ccc(C=Nc2ccc(-c3nc4ccccc4[nH]3)cc2)cc1OC | > 100 µM |  | > 100 µM | > 100 µM | > 100 µM | > 100 µM | > 100 µM | > 100 µM |  | > 100 µM | > 100 µM
